Laboratory results published in patent US20230113817A1, “DILEUCINE COMPOSITIONS AND METHODS OF USE THEREOF FOR FAT LOSS” (Ingenious Ingredients, LP, priority 2021, published 2023).

Key:
[1] = test system: body fat of overweight subjects; assay: Resistance exercise training study, body composition and body fat; assay type: in vivo, human; details: 2 g per day, n=7 per treatment group, beginning vs conclusion of study (FIG. 2)
Description: A randomized, double-blind, cross over design, resistance exercise training study was preformed to assess the impact of administration of the instantly disclosed compositions on subject body composition and body fat. Subjects were “overweight”, BMI of 26.8 in the leucine group, 25.0 in the dileucine group. Treatment groups received either leucine (2 g per day), dileucine (2 g per day), or placebo (n=7, per treatment group). Body measurements were taken at the beginning and conclusion of the study.

[2] = test system: body weight of male Swiss albino mice; assay: Weight management study in treadmill-trained mice; assay type: in vivo; details: daily treatment for 28 days
Method: Animal studies were conducted to investigate the effects of test substances (treatment) on weight management in male Swiss albino mice. Animals were divided into 17 groups with each group consisting of 8 animals. The test groups were treated with the test substances daily for 28 days. All the animals were subjected to treadmill training for 5 days a week for 28 days. Measurements were taken on day 0 and 28th day.

CC(C)C[C@H](NC(=O)[C@@H](N)CC(C)C)C(=O)O [Dileucine, L-Leucyl-L-leucine]
body fat following resistance training [1]: decreased body fat | Weight in grams ([2]; treadmill training 5 days a week, dileucine 411 mg/kg, partner doses per Table 1): 33.23 grams | Percent Difference from Placebo ([2]; weight vs control group, treadmill training, doses per Table 1): −2.69%

CC(C)C[C@H](N)C(=O)O [leucine]
body fat following resistance training [1]: modest increases in body fat
